Values quoted from earlier work in US20230190684A1, “METHODS OF TREATING COVID-19 WITH A NICLOSAMIDE COMPOUND” (priority 2020, published 2023).
Where a name gives a salt, the structure may show the parent alone.

Columns and labels:
[1] = in vivo
[2] = patients treated with niclosamide; literature (McEvoy 1995)

Row | SMILES | solubility in acetone (acetone) | solubility in ether, ethanol and chloroform (ether, ethanol and chloroform) | water solubility (water, 20° C.) | systemic bioavailability [1] | Less frequently reported AEs: rash, oral irritation, fever, rectal bleeding, weakness, bad taste in mouth, sweating, palpitation, constipation, alopecia, oedema of an arm, backache, irritability [2] | Other reported AEs: vomiting; abdominal discomfort possibly associated with anorexia, diarrhea, drowsiness, dizziness and headache [2] | dissolves in distilled water (distilled water, 20° C.)
1 | O=C(Nc1ccc([N+](=O)[O-])cc1Cl)c1cc(Cl)ccc1O [Niclosamide, 5-chloro-N-(2-chloro-4-nitrophenyl)-2-hydroxybenzamide] | soluble | sparingly soluble | 5 to 8 µg/mL | low | < 1% | 1-4 % of patients | –
2 | O=C(Nc1ccc([N+](=O)[O-])cc1Cl)c1cc(Cl)ccc1O [ethanolamine salt, 5-chloro-salicyl-(2-chloro-4-nitro) anilide 2-aminoethanol salt] | – | – | – | – | – | – | 180 to 280 mg/L
